Values after ≈ are worked out from the molar mass of the structure shown. Like-named read-outs stand apart in the source and are kept apart here. Where a SMILES comes first, the peptide text is derived from it. Where no end group is shown, it is not given here. [ ]: non-standard residue; d: D form. The star is where a group is joined. Guan = guanidino group added at N-terminus (guanidation), N=C(N)*; Orn(α-tetramethylguanidino) = CN(C)C(=N[C@@H](CCCN)C(=O)*)N(C)C; β3hR = N=C(N)NCCC[C@H](N)CC(=O)O; Cha = N[C@@H](CC1CCCCC1)C(=O)O; Agp = N=C(N)NC[C@H](N)C(=O)O; Orn = NCCC[C@H](N)C(=O)O
Columns and labels:
S. typhi S5 = assay type: cell-based, Salmonella typhi; conditions: S5, 20 h
Protocol: (§1) The minimal inhibition concentrations (MIC) of the apidaecin-derived peptides and peptide-derivatives were determined by a growth inhibition assay using a serial peptide dilution in sterilized round-bottom 96-well plates (polystyrene, U-bottom, Greiner Bio-One GmbH) with a final volume of 100 μL per well. The bacteria, e.g., E. coli BL21 A1, were grown in nutrient broth (NB, Carl Roth GmbH+Co. KG, Karlsruhe, Germany) at 37° C. over night. To each well of the 96-well plate, 50 μL of the overnight culture adjusted to 5×10^6 CFU/mL in 1% TSB were added. Lyophilized peptides and peptidomimetics were dissolved in 1% TSB (tryptic soy broth) or water to give a final concentration of 250 μg/mL. Fifty μL of the peptide or peptidomimetics solution were added to the first well of a row on the plate and mixed. Fifty μL of the first well containing the peptide solution were transferred to the second well, mixed and again 50 μL transferred to the next well and so on. Thereby, a two-fold dilution series was obtained starting at 250 μg/mL in the first well down to 120 ng/mL in the 12th well of a row giving a final peptide or peptidomimetics concentration from 125 μg/mL (well 1) to 60 ng/mL (well 12). Plates were incubated at 37° C. for 20 hrs. The absorbance was measured at 595 nm using a TECAN micro plate spectrophotometer (Tecan, Germany). All peptides and peptidomimetics were measured in triplicates. Sterilized water was used as a negative control.
(§2) The following multidrug resistant bacteria strains were tested: • Eschericha coli 45849 and D31, • Klebsiella pneumoniae 123132 and K6, • Salmonella typhi S5 and Salmonella enterica subsp. enterica serovar Typhimurium (ATCC 700408), • Rhizobium radiobacter (ATCC 15955 deposited as Agrobacterium tumefaciens).

[1] = tested on: R. radiobatter ATCC 15955; assay: Growth inhibition assay (MIC); assay type: cell-based, Rhizobium radiobacter; conditions: ATCC 15955, 20 h
Protocol: as §1, §2

E. coli 45849 = assay: Growth inhibition assay (MIC); assay type: cell-based, Escherichia coli
Protocol: as §1, §2

[2] = tested on: S. enterica subsp. Enterica serovar. typhi G10215 ATCC 700408; assay type: cell-based, Salmonella enterica; conditions: ATCC 700408, 20 h
Protocol: as §1, §2

E. coli D31 = assay type: cell-based, Escherichia coli; conditions: D31, 20 h
Protocol: as §1, §2

K. Pneumonia 123132 = assay: Growth inhibition assay (MIC); assay type: cell-based, Klebsiella pneumoniae
Protocol: as §1, §2

[3] = tested on: K. Pneumonia K6, ATCC 700603; assay: Growth inhibition assay (MIC); assay type: cell-based, Klebsiella pneumoniae; conditions: multidrug resistant strain; 1% TSB, 37° C., 20 hrs
Protocol: as §1, §2

E. coli 1103 = assay type: cell-based, Escherichia coli; conditions: 1% TSB, 37° C., 20 hrs
Protocol: as §1
(§3) The bacteria strains were tested: • Eschericha coli 1103, 10233, BL 21 AI, DC 2, • Klebsiella pneumoniae 681, • Micrococcus luteus ATCC 10240, • Mycobacterium vaccae • Bactillus subtillis 347.

M. luteus ATCC 10240 = assay type: cell-based, Micrococcus luteus
Protocol: as §1, §3

E. coli BL 21 AI = assay: Growth inhibition assay (MIC); assay type: cell-based, Escherichia coli; conditions: 1% TSB, 37° C., 20 hrs
Protocol: as §1, §3

K. pneumonia 681 = assay type: cell-based, Klebsiella pneumoniae; conditions: 1% TSB, 37° C., 20 hrs
Protocol: as §1, §3

B. subtilis 347 = assay type: cell-based, Bactillus subtillis; conditions: 1% TSB, 37° C., 20 hrs
Protocol: as §1, §3

[4] = multidrug resistant strain, 1% TSB, 37° C., 20 hrs

CC[C@H](C)[C@H](NC(=O)[C@H](Cc1ccc(O)cc1)NC(=O)[C@@H](NC(=O)[C@@H]1CCCN1C(=O)[C@H](CCCNC(=N)N)NC(=O)[C@H](CC(N)=O)NC(=O)[C@H](CC(N)=O)NC(=O)[C@@H](N)CCCN)C(C)C)C(=O)N1CCC[C@H]1C(=O)N[C@@H](CCCN)C(=O)N1CCC[C@H]1C(=O)N[C@@H](CCCNC(=N)N)C(=O)N1CCC[C@H]1C(=O)N1CCC[C@H]1C(=O)N[C@@H](Cc1c[nH]cn1)C(=O)N1CCC[C@H]1C(=O)N[C@@H](CCCNC(=N)N)C(=O)N[C@@H](CC1CCCCC1)C(N)=O [compound 35] (H-[Orn]NNRPVYIP[Orn]PRPPHPR[Cha]-NH2)
MIC S. typhi S5 (S. typhi S5): 16 µg/mL (≈ 7.3 µM)
MIC R. radiobatter ATCC 15955 [1]: 2.6 µg/mL (≈ 1.19 µM)
MIC E. coli 45849 (E. coli 45849; 45849, 20 h): 16 µg/mL (≈ 7.3 µM)
MIC S. enterica subsp. Enterica serovar. typhi G10215 ATCC 700408 [2]: 4 to 8 µg/mL
MIC E. coli D31 (E. coli D31): 8 µg/mL (≈ 3.65 µM)
MIC K. Pneumonia 123132 (K. Pneumonia 123132; 20 h): 32 µg/mL (≈ 14.6 µM)
MIC K. Pneumonia K6, ATCC 700603 [3]: 16 µg/mL (≈ 7.3 µM)

CC[C@H](C)[C@H](NC(=O)[C@H](Cc1ccc(O)cc1)NC(=O)[C@@H](NC(=O)[C@@H]1CCCN1C(=O)[C@H](CCCNC(=N)N)NC(=O)[C@H](CC(N)=O)NC(=O)[C@H](CC(N)=O)NC(=O)[C@@H](N)CCCN)C(C)C)C(=O)N1CCC[C@H]1C(=O)N[C@@H](CCC(N)=O)C(=O)N1CCC[C@H]1C(=O)N[C@@H](CCCNC(=N)N)C(=O)N1CCC[C@H]1C(=O)N1CCC[C@H]1C(=O)N[C@@H](Cc1c[nH]cn1)C(=O)N1CCC[C@H]1C(=O)N[C@@H](CCCNC(=N)N)CC(=O)N[C@@H](CC(C)C)C(N)=O [compound 121] (H-[Orn]NNRPVYIPQPRPPHP[β3hR]L-NH2)
MIC E. coli 45849 (E. coli 45849; [4]): 128 µg/mL (≈ 58.8 µM)
MIC E. coli D31 (E. coli D31): 16 µg/mL (≈ 7.34 µM)
MIC K. Pneumonia 123132 (K. Pneumonia 123132; [4]): 128 µg/mL (≈ 58.8 µM)
MIC K. Pneumonia K6, ATCC 700603 [3]: >128 µg/mL

146 (Guan-[Orn]NNRPVYIPRPRPPHP[Agp]L-NH2) [compound 146]
MIC E. coli 1103 (E. coli 1103): 64 µg/mL
MIC M. luteus ATCC 10240 (M. luteus ATCC 10240; 1% TSB, 37° C., 20 hrs): 4 µg/mL
MIC E. coli BL 21 AI (E. coli BL 21 AI): 32 µg/mL
MIC K. pneumonia 681 (K. pneumonia 681): 32 µg/mL
MIC B. subtilis 347 (B. subtilis 347): 125 µg/mL

GNNRPVYIPQPRPPHPRF-NH2 [compound 44]
MIC S. enterica subsp. Enterica serovar. typhi G10215 ATCC 700408 [2]: 4 µg/mL
MIC E. coli D31 (E. coli D31): 128 µg/mL
MIC K. Pneumonia K6, ATCC 700603 [3]: 64 µg/mL

CC[C@H](C)[C@H](NC(=O)[C@H](CCCNC(=N)N)NC(=O)[C@@H]1CCCN1C(=O)[C@H](Cc1c[nH]cn1)NC(=O)[C@@H]1CCCN1C(=O)[C@@H]1CCCN1C(=O)[C@H](CCCNC(=N)N)NC(=O)[C@@H]1CCCN1C(=O)[C@H](CCCNC(=N)N)NC(=O)[C@@H]1CCCN1C(=O)[C@@H](NC(=O)[C@H](Cc1ccc(O)cc1)NC(=O)[C@@H](NC(=O)[C@@H]1CCCN1C(=O)[C@H](CCCNC(=N)N)NC(=O)[C@H](CC(N)=O)NC(=O)[C@H](CC(N)=O)NC(=O)[C@@H](N)CCCN)C(C)C)[C@@H](C)CC)C(N)=O [compound 16] (H-[Orn]NNRPVYIPRPRPPHPRI-NH2)
MIC M. luteus ATCC 10240 (M. luteus ATCC 10240; ATCC 10240, 20 h): 3.91 µg/mL (≈ 1.78 µM)
MIC E. coli BL 21 AI (E. coli BL 21 AI): 0.98 µg/mL (≈ 0.447 µM)
MIC S. enterica subsp. Enterica serovar. typhi G10215 ATCC 700408 [2]: 2 µg/mL (≈ 0.912 µM)
MIC E. coli D31 (E. coli D31): 128 µg/mL (≈ 58.4 µM)
MIC K. Pneumonia K6, ATCC 700603 [3]: 32 µg/mL (≈ 14.6 µM)

CC[C@H](C)[C@H](NC(=O)[C@H](Cc1ccc(O)cc1)NC(=O)[C@@H](NC(=O)[C@@H]1CCCN1C(=O)[C@H](CCCNC(=N)N)NC(=O)[C@H](CC(N)=O)NC(=O)[C@H](CC(N)=O)NC(=O)[C@H](CCCN)N=C(N(C)C)N(C)C)C(C)C)C(=O)N1CCC[C@H]1C(=O)N[C@@H](CCC(N)=O)C(=O)N1CCC[C@H]1C(=O)N[C@@H](CCCNC(=N)N)C(=O)N1CCC[C@H]1C(=O)N1CCC[C@H]1C(=O)N[C@@H](Cc1c[nH]cn1)C(=O)N1CCC[C@H]1C(=O)N[C@@H](CCCNC(=N)N)C(=O)N[C@@H](CC(C)C)C(N)=O [compound 120] ({Orn(α-tetramethylguanidino)}-NNRPVYIPQPRPPHPRL-NH2; N-terminus and C-terminus assumed)
MIC S. typhi S5 (S. typhi S5): 0.125 µg/mL (≈ 0.0552 µM)
MIC S. enterica subsp. Enterica serovar. typhi G10215 ATCC 700408 [2]: 0.125 µg/mL (≈ 0.0552 µM)
MIC E. coli D31 (E. coli D31): 0.5 µg/mL (≈ 0.221 µM)

From US20150315241A1, “Antibiotic Peptides” (priority 2007, published 2015)
